Data taken from patent publication US8722687B2, “Imidazo [1,2-A]pyridine derivatives as FGFR kinase inhibitors for use in therapy” (Astex Therapeutics Ltd, priority 2009, dated 2014).

Assays:
Format in all cases: cell-based, murine
Ba/F3-TEL-FGFR3 cells = target: T1, Ba/F3-TEL-FGFR3 cells (Homo sapiens, UniProt P22607); assay: Ba/F3-TEL-FGFR3 cell proliferation assay (Alamar Blue); conditions: for GI50: 72 hours, read-out: BaF3-TEL-FGFR3 prolif
T1 construct: fused on or other part: TEL (ETV6) N-terminal oligomerising part fused to the FGFR3 kinase part; P41212 (Transcription factor ETV6)
T1 sequence (P22607 whole entry, change not shown, the tested form may be a part): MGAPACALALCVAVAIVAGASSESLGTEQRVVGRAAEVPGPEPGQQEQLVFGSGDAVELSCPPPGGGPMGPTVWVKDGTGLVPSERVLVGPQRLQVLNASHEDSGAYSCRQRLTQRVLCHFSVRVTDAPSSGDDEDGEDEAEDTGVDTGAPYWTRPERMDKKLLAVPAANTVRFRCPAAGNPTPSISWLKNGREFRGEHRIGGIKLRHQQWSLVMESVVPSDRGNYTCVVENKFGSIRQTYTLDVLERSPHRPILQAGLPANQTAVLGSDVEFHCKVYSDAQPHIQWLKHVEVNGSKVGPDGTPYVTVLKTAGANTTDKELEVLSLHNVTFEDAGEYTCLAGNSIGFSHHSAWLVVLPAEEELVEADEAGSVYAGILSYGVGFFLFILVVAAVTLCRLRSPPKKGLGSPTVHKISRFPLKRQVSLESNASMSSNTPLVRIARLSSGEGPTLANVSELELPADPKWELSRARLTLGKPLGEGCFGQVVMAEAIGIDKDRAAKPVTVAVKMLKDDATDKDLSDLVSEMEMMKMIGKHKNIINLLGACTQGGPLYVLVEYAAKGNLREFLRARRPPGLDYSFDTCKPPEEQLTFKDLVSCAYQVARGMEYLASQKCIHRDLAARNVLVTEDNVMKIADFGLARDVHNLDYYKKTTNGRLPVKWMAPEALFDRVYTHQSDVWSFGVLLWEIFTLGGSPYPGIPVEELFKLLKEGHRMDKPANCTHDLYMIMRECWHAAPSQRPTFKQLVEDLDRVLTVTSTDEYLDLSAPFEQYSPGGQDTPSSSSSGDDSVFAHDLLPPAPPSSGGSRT
Procedure: (§1) Ba/F3-TEL-FGFR3 & Ba/F3 (WT) Cell Proliferation Assays
(§2) Stably transfected Ba/F3-TEL-FGFR3 cells were plated out into black 96-well tissue culture plates with clear bottoms in RPMI medium containing 10% FBS and 0.25 mg/ml G418 at a density of 5×10^3 cells/well (200 μl per well). The parental wild-type Ba/F3 cells (DSMZ no.: ACC 300) were plated out into black 96-well tissue culture plates with clear bottoms in RPMI medium containing 10% FBS and 2 ng/ml mouse IL-3 (R&D Systems) at a density of 2.5×10^3 cells/well (200 μl per well). Plates were placed in an incubator overnight before adding the compounds the following day. Dilutions of compounds were made in DMSO starting at 10 mM and were diluted into the wells to give a final DMSO concentration of 0.1% in assay. Compounds were left on the cells for 72 hours before the plates were removed from the incubator and 20 μl of Alamar Blue™ (Biosource) was added to each well. Plates were placed in the incubator for 4-6 hours before reading plates at 535 nm (excitation)/590 nm (emission) on a Fusion plate reader (Packard). Where inhibition is high an IC50 can be determined.

[1] = tested on: parental wild-type Ba/F3 cells; assay: Ba/F3 (WT) cell proliferation assay (Alamar Blue); conditions: read-out: BaF3 WT prolif; for IC50: BaF3, 72 hours, with mouse IL-3
Procedure: as §1, §2

Ba/F3-Flt3 cells [2] = target: T2, Ba/F3-Flt3 cells (Homo sapiens, UniProt P36888, cells depend on it, form not given); assay: Ba/F3-Flt3 assay (Alamar Blue); conditions: without IL3
T2 construct: Ba/F3-flt3 − IL3 pIC50; other: without IL3
T2 sequence (P36888 1-993): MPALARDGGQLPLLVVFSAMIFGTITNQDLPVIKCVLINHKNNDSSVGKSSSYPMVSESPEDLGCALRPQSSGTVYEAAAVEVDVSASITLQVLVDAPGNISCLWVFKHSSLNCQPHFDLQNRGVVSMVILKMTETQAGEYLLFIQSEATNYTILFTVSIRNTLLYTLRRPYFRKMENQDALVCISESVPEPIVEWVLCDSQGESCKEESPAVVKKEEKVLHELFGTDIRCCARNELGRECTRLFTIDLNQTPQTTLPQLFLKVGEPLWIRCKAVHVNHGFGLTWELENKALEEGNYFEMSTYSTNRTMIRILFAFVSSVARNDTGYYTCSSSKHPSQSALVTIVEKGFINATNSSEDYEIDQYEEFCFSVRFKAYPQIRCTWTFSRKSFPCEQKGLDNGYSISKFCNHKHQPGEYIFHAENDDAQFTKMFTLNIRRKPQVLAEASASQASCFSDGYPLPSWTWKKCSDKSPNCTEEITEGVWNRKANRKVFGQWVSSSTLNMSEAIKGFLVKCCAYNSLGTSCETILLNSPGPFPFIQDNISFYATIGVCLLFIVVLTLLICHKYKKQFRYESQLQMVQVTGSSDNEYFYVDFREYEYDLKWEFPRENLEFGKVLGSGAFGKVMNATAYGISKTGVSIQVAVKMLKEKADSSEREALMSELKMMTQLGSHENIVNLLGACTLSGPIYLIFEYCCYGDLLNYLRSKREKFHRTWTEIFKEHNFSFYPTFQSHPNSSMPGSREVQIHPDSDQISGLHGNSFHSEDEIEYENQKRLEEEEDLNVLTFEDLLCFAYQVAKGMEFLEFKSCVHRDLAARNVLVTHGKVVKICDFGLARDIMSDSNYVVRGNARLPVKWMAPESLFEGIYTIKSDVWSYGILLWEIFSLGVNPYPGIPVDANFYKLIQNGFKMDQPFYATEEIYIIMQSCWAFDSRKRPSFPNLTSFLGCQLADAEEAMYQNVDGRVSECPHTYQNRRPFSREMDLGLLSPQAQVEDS
Source text: (§3) Ba/F3, a murine interleukin-3 dependent pro-B cell line is increasingly popular as a model system for assessing both the potency and downstream signaling of kinase oncogenes, and the ability of small-molecule kinase inhibitors to block kinase activity. Facilitated by their growth properties. Ba/F3 cells have recently been adapted to high throughput assay formats for compound profiling. Further, several published approaches show promise in predicting resistance to small-molecule kinase inhibitors elicited by point mutations interfering with inhibitor binding (Ba/F3 cells and their use in kinase drug discovery; Markus Warmuth, Sungjoon Kim, Xiang-ju Gu, Gang Xia and Francisco Adria'n; Curr Opin Oncol 19:55-60).
(§4) Ba/F3-Flt3 cells (cultured in phenol red free RPMI-1640, 10% A FCS and 50 μg/ml Gentamycin at 37° C. and 5% 002) were plated at a density of 10000 cells in a total volume of 180 μl medium in a black TC-treated sterile 96-well plate (Corning). After 24 hours, drugs in different dilutions were added to a final volume of 200 μl and at a final DMSO concentration of 0.2% prior to incubation at 37° C., and 5% CO2.
(§5) After 24 h, to each well 40 μl Alamar Blue solution (Aldrich) was added and the cells were further incubated for 4 hours at 37° C. Fluorescence (ex. 544, em. 590 nm) was measured using a fluorescence reader (Labsystems) and IC50's were calculated.
(§6) In the condition containing IL3, 10 ng/ml of murine IL3 (PeproTech) was added during compound incubation.

Ba/F3-Flt3 cells [3] = assay: Ba/F3-Flt3 assay (Alamar Blue); conditions: Mus musculus, 24 h; with 10 ng/ml murine IL3; read-out: Ba/F3-flt3 + IL3 pIC50 (converted)
Source text: as §3, §4, §5, §6

Structure (SMILES)	GI50 (Ba/F3-TEL-FGFR3 cells)	IC50 [1]	Ba/F3-flt3 − IL3 pIC50 (Ba/F3-Flt3 cells [2])	IC50 (Ba/F3-Flt3 cells [3])	inhibition at 10 µM ([1]; Mus musculus, BaF3, 72 h)	inhibition at 3 µM ([1]; Mus musculus, BaF3, 72 h)	BaF3-TEL-FGFR3 prolif (μM) (Ba/F3-TEL-FGFR3 cells; % at 0.100 μM)	inhibition at 1 µM ([1]; Mus musculus, BaF3, 72 h, % at 1.00 μM)
CC(C)Oc1cc(NC(=O)NCC(F)(F)F)cc(-c2cnc3cc(-c4ccnc(C(F)(F)F)n4)ccn23)c1 [Compound F-8, 1-{3-Isopropoxy-5-[7-(2-trifluoromethyl-pyrimidin-4-yl)-imidazo[1,2-a]pyridin-3-yl]-phenyl}-3-(2,2,2-trifluoro-ethyl)-urea]	170 nM	~2000 nM	<5	> 10000 nM				
CC(C)Oc1cc(NC(=O)NCC(F)(F)F)cc(-c2cnc3cc(-c4nccc(C(C)C)n4)ccn23)c1 [Compound F-29, 1-{3-Isopropoxy-5-[7-(4-isopropyl-pyrimidin-2-yl)-imidazo[1,2-a]pyridin-3-yl]-phenyl}-3-(2,2,2-trifluoroethyl)-urea]	3160 nM	3980 nM	<5	> 10000 nM				
CC(C)Oc1cc(NC(=O)NCC(F)(F)F)cc(-c2cnc3cc(OCCCO)ccn23)c1 [Compound F-18, 1-{3-[7-(3-Hydroxy-propoxy)-imidazo[1,2-a]pyridin-3-yl]-5-isopropoxy-phenyl}-3-(2,2,2-trifluoro-ethyl)-urea]	440 nM		<5	> 10000 nM	54%			
CC(C)Oc1cc(NC(=O)NCC(F)(F)F)cc(-c2cnc3cc(N4CCC(F)(F)CC4)ccn23)c1 [Compound F-13, 1-{3-[7-(4,4-Difluoro-piperidin-1-yl)-imidazo[1,2-a]pyridin-3-yl]-5-isopropoxy-phenyl}-3-(2,2,2-trifluoro-ethyl)-urea]	820 nM	3200 nM	<5	> 10000 nM				
Cc1nnc(-c2ccn3c(-c4cc(NC(=O)NCC(F)(F)F)cc(OC(C)C)c4)cnc3c2)s1.Cl [Compound F-20, 1-{3-Isopropoxy-5-[7-(5-methyl-[1,3,4]thiadiazol-2-yl)-imidazo[1,2-a]pyridin-3-yl]-phenyl}-3-(2,2,2-trifluoro-ethyl)-urea]	9 nM		<5	> 10000 nM		0%		
CC(C)Oc1cc(NC(=O)NCC(F)(F)F)cc(-c2cnc3cc(OCCO)ccn23)c1 [Compound F-17, 1-{3-[7-(2-Hydroxy-ethoxy)-imidazo[1,2-a]pyridin-3-yl]-5-isopropoxy-phenyl}-3-(2,2,2-trifluoro-ethyl)-urea]	500 nM		<5	> 10000 nM	0%			
COCc1cc(NC(=O)NCC(F)(F)F)cc(-c2cnc3cc(-c4nnc(C)o4)ccn23)c1 [Compound F-7, 1-{3-Methoxymethyl-5-[7-(5-methyl-[1,3,4]oxadiazol-2-yl)-imidazo[1,2-a]pyridin-3-yl]-phenyl}-3-(2,2,2-trifluoro-ethyl)-urea]	350 nM		<5	> 10000 nM	0%			
Cc1nc(N)cc(-c2ccn3c(-c4cc(NC(=O)NCC(F)(F)F)cc(OC(C)C)c4)cnc3c2)n1 [Compound F-4, 1-{3-[7-(6-Amino-2-methyl-pyrimidin-4-yl)-imidazo[1,2-a]pyridin-3-yl]-5-isopropoxy-phenyl}-3-(2,2,2-trifluoro-ethyl)-urea]			<5	> 10000 nM	5%		50.0% at 0.100 μM	
COCc1cc(NC(=O)NCC(F)(F)F)cc(-c2cnc3cc(-c4ccnc(C(F)(F)F)n4)ccn23)c1 [Compound F-9, 1-{3-Methoxymethyl-5-[7-(2-trifluormethyl-pyrimidin-4-yl)-imidazo[1,2-a]pyridin-3-yl]-phenyl}-3-(2,2,2-trifluoro-ethyl)-urea]	240 nM		<5	> 10000 nM		17%		
CCNC(=O)Nc1cc(OC(C)C)cc(-c2cnc3cc(-c4nnc(C)s4)ccn23)c1 [Compound F-23, 1-Ethyl-3-{3-isopropoxy-5-[7-(5-methyl-[1,3,4]thiadiazol-2-yl)-imidazo[1,2-a]pyridin-3-yl]-phenyl}-urea]	50 nM		<5	> 10000 nM	5%			
Cc1cn(-c2ccn3c(-c4cc(NC(=O)NCC(F)(F)F)cc(OC(C)C)c4)cnc3c2)cn1 [Compound F-28, 1-{3-Isopropoxy-5-[7-(4-methylimidazol-1-yl)-imidazo[1,2-a]pyridin-3-yl]-phenyl}-3-(2,2,2-trifluoro-ethyl)-urea]	100 nM		<5	> 10000 nM	73%			
Cc1nnc(-c2ccn3c(-c4cc(NC(=O)NCC(F)(F)F)cc(OC5CCC5)c4)cnc3c2)o1 [Compound F-11, 1-{3-Cyclobutoxy-5-[7-(5-methyl-[1,3,4]oxadiazol-2-yl)-imidazo[1,2-a]pyridin-3-yl]-phenyl}-3-(2,2,2-trifluoro-ethyl)-urea]	520 nM		<5	> 10000 nM	14%			
CC(C)Oc1cc(NC(=O)NCC(F)(F)F)cc(-c2cnc3cc(-c4nncs4)ccn23)c1.Cl [Compound F-19, 1-[3-Isopropoxy-5-(7-[1,3,4]thiadiazol-2-yl-imidazo[1,2-a]pyridin-3-yl)-phenyl]-3-(2,2,2-trifluoro-ethyl)-urea]	42 nM		<5	> 10000 nM				0%
CC(C)Oc1cc(NC(=O)NCC(F)(F)F)cc(-c2cnc3cc(-c4ncccn4)ccn23)c1 [Compound F-2, 1-[3-Isopropoxy-5-(7-pyrimidin-2-yl-imidazo[1,2-a]pyridin-3-yl)-phenyl]-3-(2,2,2-trifluoro-ethyl)-urea]	170 nM		<5	> 10000 nM	33%			
CCNC(=O)Nc1cc(OC(C)C)cc(-c2cnc3cc(-c4nncs4)ccn23)c1 [Compound F-10, 1-Ethyl-3-[3-isopropoxy-5-(7-[1,3,4]thiadiazol-2-yl-imidazo[1,2-a]pyridin-3-yl)-phenyl]-urea]	230 nM		5.04	> 10000 nM	34%			
